{"source": "patent US9238631B2", "about": "“Radiolabeled amino acids for diagnostic imaging” (PIRAMAL IMAGING SA, priority 2011, dated 2016)", "key": {"NCI-H460 tumor [1]": {"test_system": "NCI-H460 tumor", "assay": "PET imaging in NCI-H460 tumor bearing nude-rats", "assay_type": "in vivo", "outline": "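NCI-H460 cells were inoculated into the right flank of nude rats (RH-Foxn1 nu/nu) 8 to 10 days before imaging. PET images were acquired for 10 minutes at 60 min after injection of approximately 10 MBq tracer. Tumor, liver and kidney activity was derived by ROI analysis as %ID/g.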"}, "NCI-H460 tumor [2]": {"test_system": "NCI-H460 tumor", "assay": "PET imaging in NCI-H460 tumor bearing nude-mice", "assay_type": "in vivo", "settings": "PET at 60 min p.i., approx. 10 MBq", "experimental": "a) [^18F]-1 was examined in NCI-H460 tumor bearing nude-mice using PET-imaging. Approx. 10 MBq of the tracer was injected into the animals and PET images were acquired at 60 min p.i. for 10 minutes. The H460-tumor was very well visible in the images with 3.6% ID/g as was determined by region of interest (ROI) analysis. Except of some uptake into the bladder due to the renal excretion, no uptake into non target tissues was observed.\nb) [^18F]-12 was examined in the same animal model in mice as described above. Approx. 10 MBq was injected into the animals and PET images were obtained at 60 min p.i. for 10 min. The NCI-H460 tumor was very well visible and uptake of 2.7% ID/g into the tumor was calculated by ROI analysis. Except of some uptake into the gallbladder due to a partial hepatobiliary clearance of this derivative, the majority of activity is excreted renally, resulting in a strong PET signal from the bladder. No uptake in other non-target tissues was observed."}, "xCT (SLC7A11)": {"target": "T1, xCT (SLC7A11) (Homo sapiens, UniProt Q9UPY5)", "T1 construct": "NCI-H460 tumor cells were co-incubated with the F-18 labeled tracer and several cold derivatives; endogenous in cells; host or cells: NCI-H460 tumor cells", "T1 sequence (Q9UPY5 1-501)": "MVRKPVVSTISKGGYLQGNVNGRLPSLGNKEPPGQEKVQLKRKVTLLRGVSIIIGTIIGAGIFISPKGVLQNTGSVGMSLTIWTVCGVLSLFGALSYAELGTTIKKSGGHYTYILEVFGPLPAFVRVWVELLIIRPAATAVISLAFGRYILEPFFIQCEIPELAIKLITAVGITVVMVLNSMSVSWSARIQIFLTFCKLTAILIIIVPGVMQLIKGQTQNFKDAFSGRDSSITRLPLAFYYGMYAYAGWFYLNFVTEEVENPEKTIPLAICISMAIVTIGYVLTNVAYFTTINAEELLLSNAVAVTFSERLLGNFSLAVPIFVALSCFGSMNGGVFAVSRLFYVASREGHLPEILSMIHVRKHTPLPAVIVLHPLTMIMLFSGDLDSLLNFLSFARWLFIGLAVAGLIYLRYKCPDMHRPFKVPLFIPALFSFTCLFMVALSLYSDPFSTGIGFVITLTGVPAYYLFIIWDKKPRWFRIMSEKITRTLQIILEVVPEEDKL", "T1 sequence (P08195 1-529 partner)": "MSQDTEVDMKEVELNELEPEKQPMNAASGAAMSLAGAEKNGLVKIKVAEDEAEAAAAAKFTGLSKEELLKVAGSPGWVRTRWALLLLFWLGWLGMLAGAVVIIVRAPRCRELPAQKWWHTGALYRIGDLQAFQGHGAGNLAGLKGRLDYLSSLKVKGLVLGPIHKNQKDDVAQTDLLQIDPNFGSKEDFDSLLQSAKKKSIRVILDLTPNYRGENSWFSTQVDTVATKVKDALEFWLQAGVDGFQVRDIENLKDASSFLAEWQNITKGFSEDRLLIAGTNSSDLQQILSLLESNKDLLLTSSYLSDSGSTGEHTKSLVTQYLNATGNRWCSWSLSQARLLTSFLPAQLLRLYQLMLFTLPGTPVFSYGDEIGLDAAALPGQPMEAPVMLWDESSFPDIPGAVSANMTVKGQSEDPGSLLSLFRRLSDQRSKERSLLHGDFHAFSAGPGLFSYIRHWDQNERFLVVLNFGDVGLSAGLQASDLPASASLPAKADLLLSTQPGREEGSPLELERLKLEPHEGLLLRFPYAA", "assay": "Competition profile indicating uptake via xCT (SLC7A11)", "assay_type": "cell-based", "settings": "co-incubation with 1 mM cold competitors, NCI-H460 cells", "experimental": "For determination of the responsible uptake mechanism, NCI-H460 tumor cells were co-incubated with the F-18 labeled tracer and several cold derivatives. These derivatives were used at a concentration of 1 mM, which is a large excess compared to the tracer. L-Glutamic acid, L-cystine, Carboxyphenylglycine (CPG) were used as competitors. In addition, also D-Glutamic acid, as well as L-aspartic acid and D-aspartic acid were used in this competition experiments. […] The same experiments were performed using [^18F]-1, [^18F]-4, [^18F]-9, [^18F]-8, [^18F]-25 and [^18F]-22."}}, "data": [{"smiles": "N[C@@H](CCC(Cc1ccc(OCC[18F])cc1)C(=O)O)C(=O)O", "note": "(stereo partly drawn) [[^18F]-12] [(2S)-2-Amino-5-[4-(2-[^18F]fluoroethoxy)benzyl]hexanedioic acid]", "values": [{"measurement": "Kidney (% ID/g at 1 h p.i.)", "setting": "NCI-H460 tumor [1]; PET ROI analysis, 1 h p.i.", "result": 0.9, "unit": "% ID/g"}, {"measurement": "Liver (% ID/g at 1 h p.i.)", "setting": "NCI-H460 tumor [1]; PET ROI analysis, 1 h p.i.", "result": 0.8, "unit": "% ID/g"}, {"measurement": "Tumor (Max % ID/g at 1 h p.i.)", "setting": "NCI-H460 tumor [1]; PET ROI analysis, 1 h p.i.", "result": 2.2, "unit": "% ID/g"}, {"measurement": "Tumor (Mean % ID/g at 1 h p.i.)", "setting": "NCI-H460 tumor [1]; PET ROI analysis, 1 h p.i.", "result": 0.9, "unit": "% ID/g"}, {"measurement": "H460 tumor uptake by ROI analysis", "setting": "NCI-H460 tumor [1]; PET at 60 min after injection, approx. 10 MBq", "result": 0.9, "unit": "% ID/g"}, {"measurement": "H460 tumor uptake by ROI analysis", "setting": "NCI-H460 tumor [2]", "result": 2.7, "unit": "% ID/g"}, {"measurement": "competition profile / uptake mechanism of the tracer", "setting": "xCT (SLC7A11)", "result": "specific uptake"}]}]}
